{"source": "paper PMC7044277", "about": "(Nature Communications, 2020)", "key": {"[1]": {"molecular_target": "DRD3 wild-type (Homo sapiens, UniProt P35462)", "sequence (P35462 whole entry)": "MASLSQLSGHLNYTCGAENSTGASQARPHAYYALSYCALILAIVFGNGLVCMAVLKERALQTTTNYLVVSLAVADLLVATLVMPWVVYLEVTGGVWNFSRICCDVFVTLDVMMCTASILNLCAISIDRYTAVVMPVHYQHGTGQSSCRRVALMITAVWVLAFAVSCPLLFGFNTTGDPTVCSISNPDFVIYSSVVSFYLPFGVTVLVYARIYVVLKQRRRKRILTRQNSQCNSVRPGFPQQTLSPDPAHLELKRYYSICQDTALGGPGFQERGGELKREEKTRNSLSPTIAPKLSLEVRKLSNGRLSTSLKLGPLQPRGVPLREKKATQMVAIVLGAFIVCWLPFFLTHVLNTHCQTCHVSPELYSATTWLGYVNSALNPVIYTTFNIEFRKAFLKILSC", "experiment": "Radioligand competition binding, [3H]-N-methylspiperone"}, "[2]": {"molecular_target": "DRD2 (D2 long receptor) wild-type (Homo sapiens, UniProt P14416)", "sequence (P14416 whole entry)": "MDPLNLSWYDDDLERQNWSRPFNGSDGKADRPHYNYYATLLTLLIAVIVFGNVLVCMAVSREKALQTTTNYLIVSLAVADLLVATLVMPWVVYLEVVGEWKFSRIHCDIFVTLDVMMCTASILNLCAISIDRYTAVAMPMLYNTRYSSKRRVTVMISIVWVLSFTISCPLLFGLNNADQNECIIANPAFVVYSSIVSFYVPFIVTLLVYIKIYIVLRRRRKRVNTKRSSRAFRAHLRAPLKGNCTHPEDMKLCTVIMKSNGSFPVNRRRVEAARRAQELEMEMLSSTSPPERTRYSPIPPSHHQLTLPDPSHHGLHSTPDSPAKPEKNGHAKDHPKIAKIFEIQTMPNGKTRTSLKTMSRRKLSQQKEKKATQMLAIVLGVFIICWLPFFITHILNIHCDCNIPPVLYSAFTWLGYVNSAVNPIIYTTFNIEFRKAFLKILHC", "experiment": "Radioligand competition binding, [3H]-N-methylspiperone, HEK293T membranes", "conditions": "DRD2; [3H]-methylspiperone (0.8-1.0 nM); read-out: Ki"}, "[3]": {"molecular_target": "DRD2 F1103.28A (Homo sapiens, UniProt P14416, F110A)", "sequence (P14416 whole entry F110A)": "as the sequence (P14416 whole entry) above, with F110A counted along it", "assay_type": "binding", "design": "expressed in transfected cells; host or cells: HEK293T (ATCC CRL-11268)", "conditions": "DRD2 F1103.28A; read-out: Ki"}, "[4]": {"molecular_target": "T1, DRD4 (D4.4 variant) (Homo sapiens, UniProt P21917)", "T1 sequence (P21917 1-419)": "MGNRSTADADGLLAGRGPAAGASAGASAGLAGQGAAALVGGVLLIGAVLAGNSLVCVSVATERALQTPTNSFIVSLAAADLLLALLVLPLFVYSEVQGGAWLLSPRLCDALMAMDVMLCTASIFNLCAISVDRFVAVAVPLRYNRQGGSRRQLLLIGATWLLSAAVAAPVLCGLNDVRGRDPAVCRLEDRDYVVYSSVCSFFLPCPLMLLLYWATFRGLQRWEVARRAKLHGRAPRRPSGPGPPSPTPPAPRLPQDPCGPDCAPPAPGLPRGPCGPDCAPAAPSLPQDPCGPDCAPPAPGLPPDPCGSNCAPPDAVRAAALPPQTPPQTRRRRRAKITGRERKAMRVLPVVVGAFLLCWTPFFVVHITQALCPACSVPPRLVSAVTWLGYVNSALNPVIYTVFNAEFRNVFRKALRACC", "experiment": "β-arrestin2 recruitment (Tango)", "assay_type": "cell-based", "conditions": "DRD4; Tango; read-out: EC50 ± SEM"}, "[5]": {"molecular_target": "T2, DRD4 (D4.4 variant) wild-type (Homo sapiens, UniProt P21917)", "T2 sequence (P21917 1-419)": "T1 sequence (P21917 1-419)", "experiment": "Radioligand competition binding, [3H]-N-methylspiperone"}, "[6]": {"molecular_target": "T3, DRD2 (D2 long receptor) (Homo sapiens, UniProt P14416)", "T3 sequence (P14416 whole entry)": "as the sequence (P14416 whole entry) above", "experiment": "β-arrestin2 recruitment (Tango), HTLA cells", "assay_type": "cell-based", "conditions": "for Response, Fig_S11c dose-response: individual replicates"}, "[7]": {"molecular_target": "T3, DRD2 (D2 long receptor)", "experiment": "Gαi/o-mediated cAMP inhibition (GloSensor split-luciferase cAMP reporter), HEK293T;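 also: compounds applied 15 min at room temperature, then luciferin plus 400 nM isoproterenol to raise cAMP through endogenous β2-adrenergic receptors, luminescence read 15 min later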", "assay_type": "cell-based", "conditions": "for Response, Fig_S11b dose-response: individual replicates"}, "[8]": {"molecular_target": "DRD3 (Homo sapiens, UniProt P35462)", "sequence (P35462 whole entry)": "as the sequence (P35462 whole entry) above", "experiment": "β-arrestin2 recruitment (Tango)", "assay_type": "cell-based", "conditions": "DRD3, Tango"}, "[9]": {"molecular_target": "T1, DRD4 (D4.4 variant)", "experiment": "Gαi/o-mediated cAMP inhibition (GloSensor)", "assay_type": "cell-based", "conditions": "DRD4; agonist, cAMP inhibition; read-out: EC50 ± SEM"}}, "note": "Several values for one entry are separate records, joined by “and”; a condition that tells them apart may be missing. Equal entries are not always repeated.", "data": [{"compound": "CC(NCC1(O)CCCCC1)c1cc2ccccc2o1.Cl", "note": "(stereo not drawn) [O1LE6]", "values": [{"measurement": "Ki", "setting": "[1]; DRD3, [3H]-methylspiperone (0.8-1.0 nM), read-out: Ki", "value": 760, "unit": "nM"}, {"measurement": "pKi ± SEM", "setting": "[1]; DRD3 wild-type", "value": "6.12±0.17"}, {"measurement": "Ki", "setting": "[2]", "value": "> 10000", "unit": "nM"}, {"measurement": "Ki", "setting": "[3]", "value": "> 10000", "unit": "nM"}, {"measurement": "EC50", "setting": "[4]", "value": "> 10000", "unit": "nM"}, {"measurement": "Ki", "setting": "[5]; DRD4, [3H]-methylspiperone (0.8-1.0 nM), read-out: Ki", "value": 5890, "unit": "nM"}, {"measurement": "pKi ± SEM", "setting": "[5]; DRD4 wild-type", "value": "5.23±0.05"}, {"measurement": "Emax relative to quinpirole response", "setting": "[6]; DRD2, Tango", "value": 70.08, "unit": "%"}, {"measurement": "EC50", "setting": "[6]; DRD2, β-arrestin2 recruitment (Tango), read-out: EC50 ± SEM", "value": "797 ± 57.7", "unit": "nM"}, {"measurement": "response, Fig_S11c dose-response source data", "setting": "[6]; Fig_S11c, Log[Drug] -5, replicate values", "value": "73.3598 and 82.2115 and 60.0642 and 63.6209 and 63.3142 and 65.0045 and 51.1507 and 58.9513 and 48.4491"}, {"measurement": "Response, Fig_S11c dose-response", "setting": "[6]; Log[Drug] -6.52", "value": 30.014}, {"measurement": "Response, Fig_S11c dose-response", "setting": "[6]; Log[Drug] -7", "value": "10.4893 and 10.462 and 11.7147 and 9.282 and 6.266 and 8.074 and 10.4045 and 10.5346 and 7.978"}, {"measurement": "Response, Fig_S11c dose-response", "setting": "[6]; Log[Drug] -7.52", "value": "6.009 and 6.371 and 5.905 and 4.934 and 4.227 and 4.993 and 4.682 and 6.374 and 4.32"}, {"measurement": "Response, Fig_S11c dose-response", "setting": "[6]; Log[Drug] -8", "value": "4.1038 and 4.071 and 3.602 and 3.942 and 4.272 and 4.026 and 4.857 and 4.849 and 4.688"}, {"measurement": "Response, Fig_S11c dose-response", "setting": "[6]; Log[Drug] -8.52", "value": "3.803 and 4.0098 and 4.032 and 4.312 and 4.259 and 4.357 and 4.07 and 4.763 and 3.775"}, {"measurement": "Response, Fig_S11c dose-response", "setting": "[6]; Log[Drug] -9", "value": "4.244 and 4.685 and 3.406 and 3.869 and 4.425 and 4.183 and 3.883 and 3.8713 and 3.512"}, {"measurement": "Response, Fig_S11c dose-response", "setting": "[6]; Log[Drug] -9.52", "value": "4.538 and 3.818 and 3.898 and 3.793 and 4.174 and 4.462 and 3.884 and 3.705 and 3.5"}, {"measurement": "Response, Fig_S11c dose-response", "setting": "[6]; Log[Drug] -10", "value": "3.12 and 5.224 and 4.08 and 4.167 and 4.261 and 4.387 and 3.865 and 3.579 and 4.318"}, {"measurement": "Response, Fig_S11c dose-response", "setting": "[6]; Log[Drug] -10.52", "value": "3.591 (2×) and 4.048 and 3.394 and 3.852 and 3.958 and 3.858 and 3.561 and 3.474"}, {"measurement": "Response, Fig_S11c dose-response", "setting": "[6]; Log[Drug] -11", "value": "5.996 and 3.267 and 3.43 and 3.872 and 3.92 and 4.064 and 4.092 and 3.609 and 4.397"}, {"measurement": "Response, Fig_S11c dose-response", "setting": "[6]; Log[Drug] -11.52", "value": "4.744 and 4.248 and 3.765 and 3.919 and 3.901 and 3.85 and 3.587 and 4.237 and 3.779"}, {"measurement": "Response, Fig_S11c dose-response", "setting": "[6]; Log[Drug] -12", "value": "4.068 (2×) and 3.901 and 3.393 and 4.0327 and 3.921 and 3.9 and 3.99 and 3.547"}, {"measurement": "EC50", "setting": "[7]; DRD2, agonist, Gαi/o-mediated cAMP inhibition, read-out: EC50 ± SEM", "value": "33.1 ± 18.8", "unit": "nM"}, {"measurement": "Emax relative to quinpirole response", "setting": "[7]; DRD2, cAMP inhibition", "value": 91.90, "unit": "%"}, {"measurement": "Response, Fig_S11b dose-response", "setting": "[7]; Log[Drug] -5", "value": "89.3204 and 91.1814 and 93.3649 and 89.4471 and 88.0921 and 76.1419 and 96.2317 and 89.795 and 84.5788"}, {"measurement": "Response, Fig_S11b dose-response", "setting": "[7]; Log[Drug] -5.52", "value": "91.5039 and 91.6528 and 82.6955 and 86.6619 and 92.27 and 73.2437 and 89.2098 and 91.9183 and 89.3603"}, {"measurement": "Response, Fig_S11b dose-response", "setting": "[7]; Log[Drug] -6", "value": "93.6874 and 86.8392 and 81.0827 and 85.4951 and 84.0648 and 76.6312 and 94.0081 and 90.9486 and 79.3124"}, {"measurement": "Response, Fig_S11b dose-response", "setting": "[7]; Log[Drug] -6.52", "value": "82.5466 and 82.8444 and 76.7653 and 79.6611 and 79.6234 and 70.5902 and 84.9299 and 83.4419 and 82.6896"}, {"measurement": "Response, Fig_S11b dose-response", "setting": "[7]; Log[Drug] -7", "value": "69.4705 and 74.0856 and 77.7579 and 57.4355 and 50.0583 and 54.3867 and 80.2821 and 76.3198 and 67.1078"}, {"measurement": "Response, Fig_S11b dose-response", "setting": "[7]; Log[Drug] -7.52", "value": "64.6321 and 55.65 and 60.3147 and 22.695 and 37.7317 and 15.9389 and 61.2396 and 56.2574 and 56.2742"}, {"measurement": "Response, Fig_S11b dose-response", "setting": "[7]; Log[Drug] -8", "value": "44.0874 and 48.1814 and 41.755 and 12.175 and 7.433 and 11.554 and 48.1991 and 55.9732 and 50.8406"}, {"measurement": "Response, Fig_S11b dose-response", "setting": "[7]; Log[Drug] -8.52", "value": "32.3511 and 30.5646 and 24.436 and 24.7087 and -0.0952 and 5.9082 and 29.5745 and 42.6986 and 35.9443"}, {"measurement": "Response, Fig_S11b dose-response", "setting": "[7]; Log[Drug] -9", "value": "34.212 and 32.0286 and 29.2744 and 20.4555 and 1.072 and 15.4496 and 33.7709 and 34.4062 and 30.9956"}, {"measurement": "Response, Fig_S11b dose-response", "setting": "[7]; Log[Drug] -11", "value": "20.5404 and 9.648 and 18.1596 and 0.62"}, {"measurement": "Response, Fig_S11b dose-response", "setting": "[7]; Log[Drug] -11.52", "value": "13.5185 and 18.481 and 17.1411 and 15.3743 and -1.1867 and 2.859"}, {"measurement": "Response, Fig_S11b dose-response", "setting": "[7]; Log[Drug] -12", "value": "-3.8502 and -19.5316 and -15.1399 and -4.9694 and 6.341 and -2.4664 and 2.0891 and 0.1832 and -19.7287"}, {"measurement": "Emax relative to quinpirole response", "setting": "[8]", "value": 32.40, "unit": "%"}, {"measurement": "EC50", "setting": "[8]; read-out: EC50 ± SEM", "value": "2530 ± 290", "unit": "nM"}, {"measurement": "EC50", "setting": "[9]", "value": "> 10000", "unit": "nM"}]}]}
